In experiment [1] the target is T1, Poly [ADP-ribose] polymerase tankyrase-1 (Homo sapiens) (UniProt O95271).
T1 sequence (whole entry): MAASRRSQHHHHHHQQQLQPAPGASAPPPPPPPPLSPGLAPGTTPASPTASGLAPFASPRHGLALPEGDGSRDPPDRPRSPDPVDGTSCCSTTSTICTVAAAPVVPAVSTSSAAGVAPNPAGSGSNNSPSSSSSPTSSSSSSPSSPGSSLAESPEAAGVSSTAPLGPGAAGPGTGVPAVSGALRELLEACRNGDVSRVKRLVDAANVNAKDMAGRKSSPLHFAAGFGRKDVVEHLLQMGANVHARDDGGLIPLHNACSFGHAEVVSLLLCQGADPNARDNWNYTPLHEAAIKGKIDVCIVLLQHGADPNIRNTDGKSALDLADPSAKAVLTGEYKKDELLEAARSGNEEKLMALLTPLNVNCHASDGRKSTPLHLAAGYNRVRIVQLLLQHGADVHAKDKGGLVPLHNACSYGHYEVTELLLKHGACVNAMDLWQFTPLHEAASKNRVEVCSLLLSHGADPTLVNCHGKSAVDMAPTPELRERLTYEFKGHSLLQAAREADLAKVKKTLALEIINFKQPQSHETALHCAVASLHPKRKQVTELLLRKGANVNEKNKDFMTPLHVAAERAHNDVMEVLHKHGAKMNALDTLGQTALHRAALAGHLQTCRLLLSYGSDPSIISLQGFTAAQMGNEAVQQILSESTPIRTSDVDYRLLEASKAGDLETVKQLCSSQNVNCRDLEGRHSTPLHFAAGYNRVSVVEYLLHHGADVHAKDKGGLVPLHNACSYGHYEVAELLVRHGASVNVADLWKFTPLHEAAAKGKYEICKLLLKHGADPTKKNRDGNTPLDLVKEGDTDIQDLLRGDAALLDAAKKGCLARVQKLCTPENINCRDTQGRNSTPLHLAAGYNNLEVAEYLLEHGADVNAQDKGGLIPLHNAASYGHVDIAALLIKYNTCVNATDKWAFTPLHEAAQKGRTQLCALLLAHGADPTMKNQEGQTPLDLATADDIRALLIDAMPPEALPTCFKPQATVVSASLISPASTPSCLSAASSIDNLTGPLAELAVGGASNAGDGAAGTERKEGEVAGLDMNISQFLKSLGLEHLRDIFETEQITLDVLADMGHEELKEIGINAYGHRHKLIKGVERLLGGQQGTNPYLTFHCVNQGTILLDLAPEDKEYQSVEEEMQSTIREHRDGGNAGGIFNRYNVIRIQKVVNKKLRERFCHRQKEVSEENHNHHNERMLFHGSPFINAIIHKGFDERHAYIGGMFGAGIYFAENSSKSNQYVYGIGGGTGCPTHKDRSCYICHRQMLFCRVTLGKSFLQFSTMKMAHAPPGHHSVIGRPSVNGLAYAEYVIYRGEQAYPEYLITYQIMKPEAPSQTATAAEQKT
Description: Inhibition of TNKS1 (unknown origin) at 10 uM using biotinylated NAD as substrate preincubated for 30 mins followed by substrate addition and measured after 1 hr by BioTek synergy 2 microplate reader analysis relative to control. Particulars: time 90.0 min.

The target in experiment [2] is T2, Poly [ADP-ribose] polymerase tankyrase-1 (Homo sapiens, UniProt O95271).
T2 sequence (O95271 whole entry): T1 sequence (whole entry)
Description: Inhibition of TNKS1 (unknown origin) using biotinylated NAD as substrate preincubated for 30 mins followed by substrate addition and measured after 1 hr by BioTek synergy 2 microplate reader analysis.

The target in experiment [3] is Poly [ADP-ribose] polymerase 1 (Homo sapiens) (UniProt P09874). The experiment in a line: Inhibition of human PARP1 at 0.5 uM relative to control.
The target is the same in experiment [4]. The experiment in a line: Inhibition of human PARP1 at 50 nM relative to control.
The target in experiment [5] is Poly [ADP-ribose] polymerase 2 (Homo sapiens) (UniProt Q9UGN5). The experiment in a line: Inhibition of human PARP2 at 0.5 uM relative to control.
Experiment [6] has the same target. The experiment in a line: Inhibition of human PARP2 at 50 nM relative to control.
The target of experiment [7] is T3, Poly [ADP-ribose] polymerase tankyrase-2 (Homo sapiens) (UniProt Q9H2K2).
T3 sequence (whole entry): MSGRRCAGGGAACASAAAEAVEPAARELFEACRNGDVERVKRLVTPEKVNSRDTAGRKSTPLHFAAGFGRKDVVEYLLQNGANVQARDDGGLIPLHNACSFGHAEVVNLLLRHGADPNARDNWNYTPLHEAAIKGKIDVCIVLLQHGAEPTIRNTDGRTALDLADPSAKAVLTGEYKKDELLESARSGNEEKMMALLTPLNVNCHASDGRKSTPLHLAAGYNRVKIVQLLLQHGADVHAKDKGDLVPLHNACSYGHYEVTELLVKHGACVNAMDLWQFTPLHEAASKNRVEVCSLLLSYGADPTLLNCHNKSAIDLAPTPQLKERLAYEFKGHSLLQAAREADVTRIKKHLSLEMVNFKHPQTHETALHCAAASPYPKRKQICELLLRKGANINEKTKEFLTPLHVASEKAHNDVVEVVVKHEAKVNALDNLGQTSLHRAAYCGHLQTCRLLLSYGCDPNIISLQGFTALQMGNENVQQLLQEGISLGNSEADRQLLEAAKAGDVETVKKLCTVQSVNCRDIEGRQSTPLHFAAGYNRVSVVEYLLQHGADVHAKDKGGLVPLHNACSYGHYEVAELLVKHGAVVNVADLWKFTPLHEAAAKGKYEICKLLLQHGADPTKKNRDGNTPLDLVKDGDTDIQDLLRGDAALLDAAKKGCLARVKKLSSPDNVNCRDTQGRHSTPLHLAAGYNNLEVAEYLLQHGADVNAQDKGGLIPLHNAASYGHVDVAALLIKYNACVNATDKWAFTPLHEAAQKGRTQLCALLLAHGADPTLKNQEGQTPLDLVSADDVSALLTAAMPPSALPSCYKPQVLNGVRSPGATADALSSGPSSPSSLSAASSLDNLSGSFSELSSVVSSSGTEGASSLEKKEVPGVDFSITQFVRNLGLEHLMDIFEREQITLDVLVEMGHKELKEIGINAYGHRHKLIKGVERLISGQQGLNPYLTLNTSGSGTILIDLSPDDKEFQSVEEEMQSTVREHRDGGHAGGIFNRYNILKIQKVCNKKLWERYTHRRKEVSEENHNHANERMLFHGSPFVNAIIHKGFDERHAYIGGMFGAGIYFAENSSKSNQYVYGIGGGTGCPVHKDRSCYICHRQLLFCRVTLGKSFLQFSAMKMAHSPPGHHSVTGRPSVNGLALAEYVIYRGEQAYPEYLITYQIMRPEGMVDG
The experiment in a line: Inhibition of TNKS2 (unknown origin) at 0.5 uM relative to control.

Experiment [8] has as its target T3, Poly [ADP-ribose] polymerase tankyrase-2 (Homo sapiens). The experiment in a line: Inhibition of TNKS2 (unknown origin) at 50 nM relative to control.
In experiment [9] the target is T1, Poly [ADP-ribose] polymerase tankyrase-1 (Homo sapiens). The experiment in a line: Inhibition of TNKS1 (unknown origin) at 100 nM using biotinylated NAD as substrate preincubated for 30 mins followed by substrate addition and measured after 1 hr by BioTek synergy 2 microplate reader analysis relative to control. Particulars: time 90.0 min.

pIC50: −log10 of the molar value.

Chain of Poly [ADP-ribose] polymerase 1 (Homo sapiens) (P09874 whole entry): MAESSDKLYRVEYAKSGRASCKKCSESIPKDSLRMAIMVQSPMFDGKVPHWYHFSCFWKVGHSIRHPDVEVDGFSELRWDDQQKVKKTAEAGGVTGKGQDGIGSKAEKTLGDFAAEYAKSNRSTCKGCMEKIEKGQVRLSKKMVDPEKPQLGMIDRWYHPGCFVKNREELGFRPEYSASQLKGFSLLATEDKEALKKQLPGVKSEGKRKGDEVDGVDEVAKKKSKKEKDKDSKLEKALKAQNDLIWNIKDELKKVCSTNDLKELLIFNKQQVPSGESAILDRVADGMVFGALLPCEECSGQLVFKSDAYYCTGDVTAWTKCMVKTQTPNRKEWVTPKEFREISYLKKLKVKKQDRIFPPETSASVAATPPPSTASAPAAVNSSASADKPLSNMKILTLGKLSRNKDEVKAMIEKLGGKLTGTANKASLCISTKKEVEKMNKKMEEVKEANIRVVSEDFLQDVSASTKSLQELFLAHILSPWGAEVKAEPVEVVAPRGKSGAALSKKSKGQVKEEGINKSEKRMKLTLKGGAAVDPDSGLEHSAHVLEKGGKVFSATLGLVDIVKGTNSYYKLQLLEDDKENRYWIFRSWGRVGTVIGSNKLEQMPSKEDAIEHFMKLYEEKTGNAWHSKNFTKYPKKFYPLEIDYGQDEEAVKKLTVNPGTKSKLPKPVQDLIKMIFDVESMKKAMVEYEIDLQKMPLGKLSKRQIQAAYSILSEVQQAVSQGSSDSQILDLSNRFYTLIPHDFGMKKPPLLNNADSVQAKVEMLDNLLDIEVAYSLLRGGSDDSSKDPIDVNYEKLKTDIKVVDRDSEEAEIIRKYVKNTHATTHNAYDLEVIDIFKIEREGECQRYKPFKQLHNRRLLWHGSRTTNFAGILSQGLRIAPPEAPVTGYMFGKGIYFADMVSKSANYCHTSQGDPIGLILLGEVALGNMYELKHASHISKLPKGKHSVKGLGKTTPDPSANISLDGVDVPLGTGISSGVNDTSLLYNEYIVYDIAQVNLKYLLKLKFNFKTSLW
Chain of Poly [ADP-ribose] polymerase 2 (Homo sapiens) (Q9UGN5 whole entry): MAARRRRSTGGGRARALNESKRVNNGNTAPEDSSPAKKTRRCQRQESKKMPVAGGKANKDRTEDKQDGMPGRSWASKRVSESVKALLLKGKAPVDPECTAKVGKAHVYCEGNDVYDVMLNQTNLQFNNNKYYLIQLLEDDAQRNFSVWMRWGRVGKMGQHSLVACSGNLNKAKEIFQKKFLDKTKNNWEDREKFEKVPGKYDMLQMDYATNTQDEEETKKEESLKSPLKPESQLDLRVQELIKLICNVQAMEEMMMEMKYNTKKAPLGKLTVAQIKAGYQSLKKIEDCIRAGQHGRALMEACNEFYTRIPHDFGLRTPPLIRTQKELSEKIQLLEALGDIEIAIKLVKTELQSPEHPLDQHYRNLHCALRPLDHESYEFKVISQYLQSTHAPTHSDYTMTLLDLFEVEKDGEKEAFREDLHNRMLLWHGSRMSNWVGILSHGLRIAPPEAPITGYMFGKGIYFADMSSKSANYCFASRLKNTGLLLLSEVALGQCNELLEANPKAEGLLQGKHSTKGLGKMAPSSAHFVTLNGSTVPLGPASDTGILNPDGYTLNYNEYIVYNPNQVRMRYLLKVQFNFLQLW

In general, inhibition refers to the relative decrease from the control value, in per cent. For the compound `O=C(Cn1cnc2ccccc2c1=O)N1CCC(c2nnc(-c3ccco3)s2)CC1`, in experiment [1], the inhibition was found to be 0%. In the case of `O[C@H](c1ccccc1)c1cn(C2CCN(Cc3cnc4ccccc4c3)CC2)nn1`, in experiment [1], the inhibition stood at 5%. Take `O=C(CCc1nc2ccccc2c(=O)[nH]1)Nc1ccc(-n2cnnn2)cc1`: the inhibition in experiment [1] was 67%.

Consider `O=C(Cc1n[nH]c(=O)c2ccccc12)Nc1ccc(Cc2nc3ccccc3s2)cc1`, for which the inhibition in experiment [1] is 35%. The term pIC50 denotes −log10 of the IC50, conventionally taken in molar units. Take `CNC(=O)[C@H](CNC(=O)Cn1[nH]c(=O)c2ccccc2c1=O)NC(=O)c1cnc(C)cn1`: the pIC50 in experiment [2] was 6.85. Turning to `O=C(NCCNC(=O)c1n[nH]c(=O)c2ccccc12)c1cccc(CN2C(=O)CNC2=O)c1`, the pIC50 in [2] is 7.16. The inhibition is 47% in experiment [3]; 17% in experiment [4]; 53% in experiment [5]; 3% in experiment [6]; 93% in experiment [7]; 49% in experiment [8].

In the case of `CNC(=O)[C@H](CNC(=O)c1cccc(COc2ccccc2C(N)=O)c1)NC(=O)COc1cc(C)cc2oc(=O)c3c(c12)CCC3`, the pIC50 in [2] was 7.48.

In the case of `O=C(CCn1c(=O)[nH]c(=O)c2ccccc21)NCCNC(=O)c1cnc2ccccc2c1`, the pIC50 in experiment [2] is 8.08. Take `O=C(Cc1n[nH]c(=O)c2ccccc12)OCC(=O)N1CCN(c2ccccn2)CC1`: the negative logarithm of the IC50 (pIC50) in [2] is 7.66. Further, the inhibition in experiment [1] turned out to be 100%; in experiment [9] it was 78%. Regarding `Cc1cnc(C(=O)NCCNC(=O)Cn2[nH]c(=O)c3ccccc3c2=O)cn1`, the pIC50 in [2] is 7.33. Also, the inhibition in experiment [3] is 52%; in experiment [4], 14%; in experiment [5] it was 52%; in experiment [6] it was 0%; in [7], 92%; in [8] it was 49%.

For `CC(=O)N1CCC[C@H]1C(=O)NCCNC(=O)CCn1c(=O)[nH]c(=O)c2ccccc21`, in [2], the pIC50 is 4.59. On the same count and under the same terms, under `COc1ccc2c(c1)C(CC(=O)NCCNC(=O)CCn1c(=O)[nH]c(=O)c3ccccc31)CC2=O` (stereo not drawn) stands 7.82. On to `Cc1ccc(C)c(NC(=O)CSc2nnc(Cc3cc(=O)[nH]c(=O)[nH]3)n2-c2ccc(Cl)cc2)c1`, for which the inhibition amounted to 7% in [1] and 0% in experiment [9]. Consider `O=C(NCc1ccc(-c2ccc3c(c2)CCCO3)cc1)c1nc2ccccc2c(=O)[nH]1`, for which the inhibition in experiment [1] was determined as 74%. As for `COc1ccc(C(N)=O)cc1NC(=O)c1cccc(-c2cnc3[nH]c(=O)n(C)c3c2)c1`, the inhibition turned out to be 97% in [1] and 3% in experiment [9]. For `Cc1ccc2c(c1)NC(=O)C2CC(=O)NCCNC(=O)CCn1c(=O)[nH]c(=O)c2ccccc21` (stereo not drawn), the pIC50 in [2] was 7.12. On the same count and under the same terms, under `CC(=O)N1CCC[C@H]1C(=O)NCCNC(=O)Cn1[nH]c(=O)c2ccccc2c1=O` stands 5.31.

The values are drawn from ChEMBL document CHEMBL5331077, “Combining pharmacophore models derived from DNA-encoded chemical libraries with structure-based exploration to predict Tankyrase 1 inhibitors” (Eur J Med Chem, 2023).
